Measured values published in US12065407B2, “Dual acting FKBP12 and FKBP52 inhibitors” (PLEX PHARMACEUTICALS, INC., priority 2017, dated 2024).
“And” between values parts separate entries of the source, which are not always exact repeats. Identical values can stand only once. Like-named read-outs stand apart in the source and are kept apart here. Values belong to the compound of their own block, whether it stands above or below them.

Key:
[1] = Microsomal stability (Clint assay), rat liver microsome; assay type: in vitro ADME; conditions: male, Sprague-Dawley, liver microsomes, pH 7.4, 1 μM compound, 0.5 mg/mL protein, 1 mM NADPH, 37° C.; for microsomal CLint at 1 μM: read-out: Clearance CL int (rat microsomes); for half-life at 1 μM: read-out: Rat microsomes T1/2
Method: (§1) Microsomal stability measurements were carried out by Clint assay. Test compounds were incubated with liver microsome, and metabolic stability was determined over 45 minutes. The experimental conditions were as follows. […]

[2] = Distribution of inhibitors in plasma and brain after intravenous dosing of mice; assay type: in vivo; conditions: 1 mg/kg IV; for Plasma Concentrations, mean: n = 5; for concentration at 1 h / concentration at 0.15 h / concentration at 0.5 h: male, CD1, mouse, iv, 1 mg/kg
Method: Distribution of inhibitors in plasma and brain tissue was examined after intravenous dosing of mice with inhibitors. The experimental conditions were as follows: Mice: male CD1 about 8 weeks old; body weight: about 25 g; No. of groups: one; No. of animals per group: 5; vehicle for IV dosing: DMSO; dosage: 1 mg/kg.
Plasma samples were separated by centrifugation in presence of K2-EDTA as anticoagulant. Brain tissue were homogenized in phosphate buffer saline and processed for bioanalysis as per standard practice. Samples were analyzed by a discovery grade bio-analytical method using LC-MS/MS method.

[3] = system: wild type α-synuclein overexpressing BE(2)-M17 cells (WT21); experiment: Neuroprotection in wild type α-synuclein overexpressing BE(2)-M17 cells (WT21); assay type: cell-based, human; conditions: Alamar Blue assay
Method: (§2) BE(2)-M17 human neuroblastoma cells engineered to stably express either wild type or A53T mutant α-synuclein, PC12 rat pheochromocytoma, or SH-SY5Y human neuroblastoma cells were cultured in 96-well cell culture dishes in a humidified incubator at 37° C., 5% CO2. The growth medium was supplemented with 0.1% dimethyl sulfoxide (vehicle control) or compounds dissolved in dimethyl sulfoxide. Following 2 hours of exposure to compounds, the growth medium was further supplemented with 6-hydroxydopamine (or 0.1% ascorbic acid vehicle control) and incubated for an additional 24-48 hours.
(§3) Cell viability was measured by reduction of WST-8 or AlamarBlue® and the relative protection from 6-hydroxydopamine was measured by calculating the percentage of viable cells normalized to 6-hydroxydopamine treated cells in the absence of compound. See FIGS. 1A and 1B for neuroprotection observed in PC12 cells treated with dual acting FKBP12 and FKBP52 inhibitory exemplary compounds CAP01687 (FIG. 1A) and CAP01693 (FIG. 1B) measured using WST-8 assay. Specifically, FIGS. 1A and 1B, show relative percent protection from 6-OHDA, the vehicle control being set to 0% relative protection. […] Neuroprotection was also observed in A53T mutant α-synuclein overexpressing BE(2)-M17 cells (M3.2) treated with CAP01687 (FIG. 3B). The bars in FIGS. 3A and 3B depict relative percent fluorescence, which is proportional to cell viability, with the vehicle control being 100%.]
BE(2)-M17 human neuroblastoma cells engineered to stably express either wild type or A53T mutant α-synuclein, PC12 rat pheochromocytoma cells, or SH-SY5Y human neuroblastoma cells were cultured in 96-well cell culture dishes in a humidified incubator at 37° C. and 5% CO2. The growth medium was supplemented with 0.1% dimethyl sulfoxide (vehicle control) or compounds dissolved in dimethyl sulfoxide. […]
Cell viability was measured by reduction of WST-8 or alamarBlue® and the relative protection from 6-hydroxydopamine was measured by calculating the percentage of viable cells normalized to 6-hydroxydopamine treated cells in the absence of compound.

[4] = Microsomal stability (Clint assay), human liver microsome; assay type: in vitro ADME; conditions: both sexes, liver microsomes, pH 7.4, 1 μM compound, 0.5 mg/mL protein, 1 mM NADPH, 37° C.; for microsomal CLint at 1 μM: read-out: Clearance CL int (human microsomes); for half-life at 1 μM: read-out: Human microsomes T1/2
Method: as §1

PC12 cells = experiment: Neurite outgrowth; assay type: cell-based, rat; conditions: light microscopy, bar graph
Method: PC12 rat pheochromocytoma or SH-SY5Y human neuroblastoma cells were grown on glass coverslips in a 24-well cell culture dish in a humidified incubator at 37° C., 5% CO2. After 24 hours, the cells were washed with phosphate buffered saline and the serum concentration of the growth medium was reduced to 0.2%. After 16 hours in the reduced serum medium, 0.1% dimethyl sulfoxide (vehicle control) or compounds dissolved in dimethyl sulfoxide were added to the growth medium. Following 2 hours of exposure to compounds, the growth medium was supplemented with 6-hydroxydopamine (or 0.1% ascorbic acid vehicle control), nerve growth factor (or phosphate-buffered saline vehicle control), in addition to 0.1% dimethyl sulfoxide (vehicle control) or compounds dissolved in dimethyl sulfoxide. […] Phase contrast images were captured at 20× magnification and the percentage of cells with neurites longer than 20 μm were scored for approximately 200 cells in each condition using ImageJ software.
PC12 rat pheochromocytoma or SH-SY5Y human neuroblastoma cells were grown on glass coverslips in a 24-well cell culture dish in a humidified incubator at 37° C. and 5% CO2. […] Phase contrast images were captured at 20× magnification and the percentage of cells with neurites longer than 20 μm were scored for approximately 200 cells in each condition using ImageJ software.

[5] = system: A53T mutant α-synuclein overexpressing BE(2)-M17 cells (M3.2); experiment: Neuroprotection in A53T mutant α-synuclein overexpressing BE(2)-M17 cells (M3.2); assay type: cell-based, human; conditions: for Neuroprotection (cell viability): A53T mutant α-synuclein cells (M3.2), Alamar Blue assay
Method: as §2
as §3, with “See” for “Cell viability was measured by reduction of WST-8 or AlamarBlue® and the relative protection from 6-hydroxydopamine was measured by calculating the percentage of viable cells normalized to 6-hydroxydopamine treated cells in the absence of compound. See”
as §2, with “pheochromocytoma cells,” for “pheochromocytoma,”, “C. and” for “C.,”, “(OHDA) or” for “(or”, “hours. […]” for “hours.”

WT21 cells = experiment: Cytotoxicity to WT21 cells (MTS tetrazolium dye reduction); assay type: cell-based, human; conditions: concentrations under 50 μM
[6] = system: PC12 rat pheochromocytoma cells; experiment: Neuroprotection from 6-hydroxydopamine in PC12 cells (WST-8); assay type: cell-based; conditions: WST-8 assay, FIG. 1
Method: as §2
Cell viability was measured by reduction of WST-8 or AlamarBlue® and the relative protection from 6-hydroxydopamine was measured by calculating the percentage of viable cells normalized to 6-hydroxydopamine treated cells in the absence of compound. See FIGS. 1A and 1B for neuroprotection observed in PC12 cells treated with dual acting FKBP12 and FKBP52 inhibitory exemplary compounds CAP01687 (FIG. 1A) and CAP01693 (FIG. 1B) measured using WST-8 assay. Specifically, FIGS. 1A and 1B, show relative percent protection from 6-OHDA, the vehicle control being set to 0% relative protection. […] The bars in FIGS. 3A and 3B depict relative percent fluorescence, which is proportional to cell viability, with the vehicle control being 100%.] […]

[7] = brain, 1 h, n = 5, read-out: Brain concentrations, mean
[8] = plasma, 0.15 h, n = 5, read-out: Plasma Concentrations, mean
[9] = plasma, 0.5 h, n = 5, read-out: Plasma Concentrations, mean
[10] = plasma, 0.5 h, read-out: Plasma Concentrations, individual animals
[11] = plasma, 1 h, n = 5, read-out: Plasma Concentrations, mean
[12] = plasma, 1 h, read-out: Plasma Concentrations, individual animals

- microsomal CLint at 1 μM [1]: 202 µL/min/mg
- half-life at 1 μM [1]: 6.85 min
- Plasma Concentrations, mean ([2]; 0.15 h): 194.59 ng/mL
- Plasma Concentrations, mean ([2]; 0.5 h): 65.36 ng/mL
- Plasma Concentrations, mean ([2]; 1 h): 33.80 ng/mL
- concentration at 1 h [2, 7]: 70.4 ng/g
- concentration at 1 h ([2]; brain, 1 h, read-out: Brain concentrations, individual animals): 73.8 ng/g
- concentration at 0.15 h [2, 8]: 195 ± 69.9 ng/mL
- concentration at 0.5 h [2, 9]: 65.4 ± 16.2 ng/mL
- concentration at 0.5 h [2, 10]: 71.9 ng/mL
- concentration at 1 h [2, 11]: 33.8 ± 11 ng/mL
- concentration at 1 h [2, 12]: 33.7 ng/mL
- microsomal CLint at 1 μM [4]: 52.4 µL/min/mg
- half-life at 1 μM [4]: 26.4 min
SMILES: Cc1ccc(Cn2c(/C=C/c3ccc(F)cc3)nc3ccccc32)cc1 [CAP01551, 2-[2-(4-fluorophenyl)vinyl]-1-(4-methylbenzyl)-1H-benzimidazole]
- Plasma Concentrations, individual animals ([2]; 0.15 h): 217.36 ng/mL and 295.33 ng/mL and 122.46 ng/mL and 203.22 ng/mL and 134.60 ng/mL
- Plasma Concentrations, individual animals ([2]; 0.5 h): 88.98 ng/mL and 46.31 ng/mL and 62.88 ng/mL and 56.74 ng/mL
- Brain concentrations, individual animals ([2]; 1 h): 81.88 ng/G and 57.91 ng/G and 63.84 ng/G and 74.50 ng/G
- Plasma Concentrations, individual animals ([2]; 1 h): 52.86 ng/mL (2×) and 27.45 ng/mL (2×) and 27.24 ng/mL (2×) and 27.74 ng/mL (2×) and 33.70 ng/mL
- Neuroprotection (cell viability) [3]: neuroprotection

SMILES: CCn1c(/C=C/c2ccc(Cl)cc2)nc2ccccc21 [CAP01510]
- Neurite outgrowth (percentage of cells with neurites longer than 20 μm) (PC12 cells): dose dependent promotion of neurite outgrowth

SMILES: COc1ccc(/N=N/c2nc3ccccc3n2C)c2ccccc12 [CAP01324]
- Neuroprotection (relative change in absorbance, MTS) ([5]; A53T mutant cells, 100 nM, MTS tetrazolium dye): neuroprotection
- Cytotoxicity (relative change in absorbance, MTS) (WT21 cells): not cytotoxic

- microsomal CLint at 1 μM [1]: 130 µL/min/mg
- half-life at 1 μM [1]: 10.7 min
- Plasma Concentrations, mean ([2]; 0.15 h): 239.7 ng/mL
- Plasma Concentrations, mean ([2]; 0.5 h): 100.5 ng/mL
- Plasma Concentrations, mean ([2]; 1 h): 49.8 ng/mL
- concentration at 1 h [2, 7]: 19.1 ng/g
- concentration at 0.15 h [2, 8]: 240 ± 14.2 ng/mL
- concentration at 0.15 h ([2]; plasma, 0.15 h, read-out: Plasma Concentrations, individual animals): 246 ng/mL
- concentration at 0.5 h [2, 9]: 100 ± 5.1 ng/mL
- concentration at 0.5 h [2, 10]: 103 ng/mL
- concentration at 1 h [2, 11]: 49.8 ± 6.8 ng/mL
- concentration at 1 h [2, 12]: 50.3 ng/mL
- microsomal CLint at 1 μM [4]: 167 µL/min/mg
- half-life at 1 μM [4]: 8.29 min
SMILES: O=C(N[C@H](C(=O)NCCCc1ccccc1)c1ccccc1)c1ccc2cc(F)ccc2c1 [CAP01723, (2S)-2-[(6-fluoronaphthalen-2-yl)formamido]-2-phenyl-N-(3-phenylpropyl)acetamide]
- Plasma Concentrations, individual animals ([2]; 0.15 h): 258.2 ng/mL and 225.3 ng/mL and 225.4 ng/mL and 244.2 ng/mL
- Plasma Concentrations, individual animals ([2]; 0.5 h): 106.1 ng/mL and 97.6 ng/mL and 102.6 ng/mL and 93.2 ng/mL
- Brain concentrations, individual animals ([2]; 1 h): 17.2 ng/G and 14.6 ng/G and 31.9 ng/G and 9.5 ng/G and 22.3 ng/G
- Plasma Concentrations, individual animals ([2]; 1 h): 41.1 ng/mL (2×) and 58.7 ng/mL (2×) and 53.5 ng/mL (2×) and 45.4 ng/mL (2×) and 50.3 ng/mL

SMILES: CC(C)CCn1c(/C=C/c2ccc(F)cc2)nc2ccccc21 [CAP01559]
- Neuroprotection (cell viability) [5]: neuroprotection
- Neuroprotection (cell viability) [3]: neuroprotection

SMILES: O=C(N[C@@H](Cc1ccc(Cl)cc1)C(=O)NCCCc1ccccc1)c1ccc2cc(F)ccc2c1 [CAP01687]
- Neuroprotection (cell viability) [5]: neuroprotection
- Neuroprotection (cell viability) [3]: neuroprotection
- Neurite outgrowth (percentage of cells with neurites longer than 20 μm) (PC12 cells): promotion of neurite outgrowth
- Neuroprotection (relative percent protection from 6-OHDA) [6]: neuroprotection

SMILES: O=C(N[C@@H](Cc1ccc(Cl)cc1)C(=O)NCCCc1cccnc1)c1ccc2cc(F)ccc2c1 [CAP01693, (2S)-3-(4-chlorophenyl)-2-[(6-fluoronaphthalen-2-yl)-formamido]-N-[3-(pyridine-3-yl)propyl]propanamide]
- Neuroprotection (relative percent protection from 6-OHDA) [6]: neuroprotection
